US11197873B2, “Azolium salts for treatment of non-muscle invasive bladder cancer” (The University of Akron, priority 2019, dated 2021)

Key:
Assay type in all cases: cell-based, human
RT112 cell line = assay: Relative survival at varying concentration and exposure time, 24 h recovery; conditions: 5 min exposure time
Experimental: (§1) FIG. 4 provides the relative survival of RT4 cells in part A and RT112 cells in part B that were treated with varying concentrations of III for different exposure times followed by a 24 h recovery.
Select bladder cancer cell lines were seeded at 10,000 cells/well in black-walled 96 well plates and incubated for 24 h. […] After 24 h, plates with cells were incubated at room temperature for 30 min, followed by the addition of 20 μL of CellTiter-Glo® luminescent cell viability assay reagent (Promega) and mixing. After 2 min of incubation at room temperature, luminescence for each plate was measured using IVIS. Relative survival for each treatment group was calculated using vehicle control. All treatments were performed in quadruplicate.

[1] = tested on: bladder cancer cell lines; assay: CellTiter-Glo assay, growth inhibition at 1 h exposure
Experimental: (§2) Select bladder cancer cell lines were seeded at 10,000 cells/well in black-walled 96 well plates and incubated for 24 h. Cells were treated with compound in their respective media (as recommended by ATCC) at concentrations of 500 to 7.8 μM dissolved in two-fold dilution increments or vehicle for 1 h, followed by replacement of treatment media with normal growth media. After 24 h, plates with cells were incubated at room temperature for 30 min, followed by the addition of 20 μL of CellTiter-Glo® luminescent cell viability assay reagent (Promega) and mixing. After 2 min of incubation at room temperature, luminescence for each plate was measured using IVIS. Relative survival for each treatment group was calculated using vehicle control. All treatments were performed in quadruplicate.

RT4 cell line = assay: Relative survival at varying concentration and exposure time, 24 h recovery; conditions: 5 min exposure time
Experimental: as §1, §2

- GI50 compared with both triphenylphosphonium compounds [1]: extremely lower GI50 concentrations
SMILES: CN1/C(=C/C=C/c2n(Cc3ccc4ccccc4c3)c(Cl)c(Cl)[n+]2Cc2ccc3ccccc3c2)Oc2ccccc21.[Cl-] [III, 4,5-dichloro-2-((1E,3Z)-3-(3-methylbenzoxazol-2(3H)-ylidene)prop-1-en-1-yl)-1,3-bis(naphthalen-2-ylmethyl)-1H-imidazolium chloride]
- concentration that inhibits cell survival (RT112 cell line): 40 µM
- concentration that inhibits cell survival (RT4 cell line): 10 µM
